Laboratory results from patent US20140088085A1, “Substituted Benzoazepines As Toll-Like Receptor Modulators” (ARRAY BIOPHARMA, INC, priority 2011, published 2014).
Read-outs that look alike come from different tables or passages of the source.

Experiments:
[1] = molecular target: T1, hTLR8 (Homo sapiens, UniProt Q9NR97); test: HEK-293 hTLR8 transfectant NF-κB SEAP reporter antagonist assay; type: cell-based
T1 construct: host or cells: HEK293 cells stably transfected with hTLR8
T1 sequence (Q9NR97 27-1041): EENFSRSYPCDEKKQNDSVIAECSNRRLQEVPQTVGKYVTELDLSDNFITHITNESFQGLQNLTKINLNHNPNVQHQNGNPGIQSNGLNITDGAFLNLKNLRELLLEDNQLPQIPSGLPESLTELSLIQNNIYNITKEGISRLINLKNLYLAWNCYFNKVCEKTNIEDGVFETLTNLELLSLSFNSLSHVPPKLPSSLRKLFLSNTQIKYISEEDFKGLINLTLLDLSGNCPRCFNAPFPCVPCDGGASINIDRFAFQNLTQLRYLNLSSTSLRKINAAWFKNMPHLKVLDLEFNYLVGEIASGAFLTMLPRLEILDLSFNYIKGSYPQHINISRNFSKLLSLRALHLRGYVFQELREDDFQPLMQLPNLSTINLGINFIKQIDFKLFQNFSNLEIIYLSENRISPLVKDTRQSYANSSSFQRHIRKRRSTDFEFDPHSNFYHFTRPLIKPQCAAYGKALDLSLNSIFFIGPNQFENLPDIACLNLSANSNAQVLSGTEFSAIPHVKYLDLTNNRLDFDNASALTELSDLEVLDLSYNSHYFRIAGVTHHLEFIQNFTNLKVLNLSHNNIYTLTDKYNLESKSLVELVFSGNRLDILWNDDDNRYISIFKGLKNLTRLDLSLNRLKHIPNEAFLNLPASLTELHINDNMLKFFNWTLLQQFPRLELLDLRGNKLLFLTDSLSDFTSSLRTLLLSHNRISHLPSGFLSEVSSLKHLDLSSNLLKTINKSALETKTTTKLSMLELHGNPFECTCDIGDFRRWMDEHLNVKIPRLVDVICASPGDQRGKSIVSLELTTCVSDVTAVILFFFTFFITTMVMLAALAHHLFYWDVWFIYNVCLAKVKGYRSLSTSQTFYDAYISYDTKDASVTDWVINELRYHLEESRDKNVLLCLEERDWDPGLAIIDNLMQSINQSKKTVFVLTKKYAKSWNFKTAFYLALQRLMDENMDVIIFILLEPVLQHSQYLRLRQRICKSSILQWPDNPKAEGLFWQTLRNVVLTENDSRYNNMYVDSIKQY
Description: The HEK-293 hTLR transfectant assay employs HEK293 cells stably transfected with various hTLRs and transiently co-transfected with a plasmid containing an NF-κB driven secreted embryonic alkaline phosphate (SEAP) reporter gene. Stimulation of TLRs activates their downstream signaling pathways and induces nuclear translocation of the transcription factor NF-κB. Reporter gene activity is then measured using a spectrophotometric assay.
For the TLR8 antagonist assays, cells are transiently transfected with the reporter gene on Day 1 per the supplier's instructions. Antagonist compounds are added to the cultures on Day 2 followed by addition of a TLR8 agonist approximately 2 hours later. Cultures are incubated overnight and SEAP activity is measured on Day 3.
In a typical assay, 50,000 HEK239 hTLR8 cells are seeded per culture well and transiently transfected with the SEAP reporter gene. Antagonists are added to cultures in culture medium and […] DMSO over a concentration range of 0.1 nanomolar to 10 micromolar. TLR8 agonists are added to cultures 2 hours later at a fixed concentration (e.g., 1 micromolar or 10 micromolar of Compound A) and cultures are then incubated for 16-24 hrs at 37° C. in a humidified CO incubator. Antagonists are also evaluated for activity in the absence of agonist.
TLR8 antagonist activity at 25 μM is presented in Table 2, where + denotes a % inhibition of 20-39, ++ denotes a % inhibition of 40-59, +++ denotes a % inhibition of 60-79 and ++++ denotes a % inhibition of 80-99. In some cases, antagonist activity was assessed at lower concentrations, for example, at 8.3, 2.8, or less than 1 μM.
TLR8 antagonist activity was measured in a hTLR8 assay format, measuring IC50 values. Compounds were incubated with hTLR8 reporter cells for two hours, then 1 μM Compound A was added to induce TLR8 overnight. IC50 were then calculated.

[2] = system: human peripheral blood mononuclear cells (PBMCs); test: Human PBMC assay: IL-8 production stimulated with CL075 (ELISA); type: cell-based; conditions: 3 to 1000 nM antagonist 2 h, then CL075 100 ng/mL (400 nM) overnight, FIG. 1, one donor
Description: PBMCs contain a mixture of cells including monocytes and myeloid dendritic cells (mDCs) that express TLR8. […] The ability of TLR8 antagonists to inhibit […] production in human PBMCs was evaluated. […] Data shown in FIG. 1 are a representative experiment from one donor evaluated in duplicate culture wells. Increasing concentrations (from 3 to 1000 nM) of Compounds 3348, 2987, 3261, 3387, and 3448 (labeled as VTX-3348, VTX-2987, VTX-3261, VTX-3387, VTX-3448 in FIG. 1) were added to human PBMCs (50,000 cells/well in RPMI) and incubated for 2 hours in a 37° C. humidified CO2 incubator. […] At the end of the incubation, cells were centrifuged and cell culture supernatants were analyzed for IL-8 by ELISA (eBiosciene kit) per the manufacturer's instructions. The absorbance (OD 450 nm) representative of IL-8 levels is shown on the y-axis of FIG. 1.
The experiment shown in FIG. 1 was repeated in multiple donors and with additional TLR8 antagonist molecules (see FIG. 2). […] Percent inhibition is shown on the y-axis and concentrations of TLR8 antagonists (3-1000 nM) are shown on the x-axis in FIG. 2.

[3] = IC50, nM, vs. VTX-378 1 μM, agonist VTX-378 at 1 μM

| SMILES | IC50 [1, 3] [nM] | IC50 ([1]; IC50, nM, vs. VTX-378 10 μM, agonist VTX-378 at 10 μM) [nM] | inhibition of IL-8 production [2] | IC50 ([1]; IC50, nM, vs. 3M002 10 μM, agonist 3M002 at 10 μM) [nM] | IC50 ([1]; agonist VTX-378 at 0.5 μM, read-out: IC50, nM, vs. VTX-378 0.5 μM) [nM] |
| --- | --- | --- | --- | --- | --- |
| CCCN(CCC)C(=O)C1=Cc2cc(-c3ccc(C(=O)N4CCCC4)cc3)ccc2N=C(N)C1 [Compound 2987] | < 1000 | 1000 to 10000 | reduced in a dose dependent fashion | – | – |
| CCOC(=O)C1=Cc2cc(-c3ccc(C(=O)N4CCCC4)cc3)ccc2N=C(N)C1(C)C [Compound 3348] | < 1000 | – | reduced in a dose dependent fashion | < 1000 | < 1000 |
